Literature values as cited in patent US8512522B2, “Method of producing paper with methane reduction ingredients” (priority 2011, dated 2013).
Where two headings read alike, the source gives them in different places.

Experiments:
Anaerobic digester = details: methane inhibition
Anaerobic medium = details: methane inhibition
[1] = system: Anaerobic digested sludge + activated sludge
Marine sediments = details: methane inhibition
Sewage sludge = details: methane inhibition

| Compound | Suppressive Concentration (Anaerobic digester) | also measured |
| --- | --- | --- |
| [Ca+2] [Calcium] | >2,500 mg/L | – |
| [Ni+2] [Nickel (Ni2+)] | – | Suppressive Concentration (Anaerobic medium): 2.5 mM |
| [Cu+2] [Copper (Cu2+)] | 10 to 250 mg/L | – |
| [Mg+2] [Magnesium] | >1,000 mg/L | – |
| O=S(=O)(O)CCBr [2-Bromoethane sulfonic acid] | – | Suppressive Concentration ([1]; completely inhibited, Parameswaran et al., 2009): 50 mM; Suppressive Concentration ([1]; potently inhibited, Chae et al., 2010): 0.1 to 0.27 mM |
| Sodium | >3,500 mg/L | – |
| [Zn+2] [Zinc (Zn2+)] | 10 to 250 mg/L | – |
| C=C [Ethylene] | – | Suppressive Concentration (Marine sediments): >5% v/v |
| [Fe+3] [Ferric iron (Fe3+)] | – | Suppressive Concentration (Sewage sludge): 21 mg/L |
| [K+] [Potassium] | >2,500 mg/L | – |
